These results are taken from paper PMC11414412, “Design and synthesis new indole-based aromatase/iNOS inhibitors with apoptotic antiproliferative activity” (Frontiers in Chemistry, 2024).

Experiment [1] relates to Bcl-2. In words: Bcl-2 inhibition assay. The conditions noted are these: lung (A-549) cancer cells; for Bcl-2 Conc: compound at IC50. The format is cell-based, human. Here is the method: 4.2.8. Bcl-2 inhibition assay
Mix all reagents thoroughly without foaming before use. Wash the microwells twice with approximately 300 μL Wash Buffer per well with thorough aspiration of microwell contents between washes. Take caution not to scratch the surface of the microwells. After the last wash, empty the wells and tap microwell strips on absorbent pad or paper towel to remove excess Wash Buffer. Use the microwell strips immediately after washing or place upside down on a wet absorbent paper for not longer than 15 minutes. […] Add 100 μL of Sample […]
Diluent in duplicate to all standard wells and to the blank wells. Prepare standard (1:2 dilution) in duplicate ranging from 32 ng/mL to 0.5 ng/mL. Add 100 μL of Sample Diluent, in duplicate, to the blank wells. Add 80 μL of Sample Diluent, in duplicate, to the sample wells. Add 20 μL of each Sample, in duplicate, to the designated wells. Add 50 μL of diluted biotin-conjugate to all wells, including the blank wells. Cover with a plate cover and incubate at room temperature, on a microplate shaker at 100 rpm if available, for 2 hours. Remove plate cover and empty the wells.
Wash microwell strips 3 times as described in step 2. Add 100 μL of diluted Streptavidin-HRP to all wells, including the blank wells. Cover with a plate cover and incubate at room temperature, on a microplate shaker at 100 rpm if available, for 1 hour. Remove plate cover and empty the wells.
Wash microwell strips 3 times as described in step 2. Proceed to the next step. Pipette 100 μl of mixed TMB Substrate Solution to all wells, including the blanks. Incubate the microwell strips at room temperature (18° to 25°C) for about 15 minutes, if available on a rotator set at 100 rpm.
Avoid direct exposure to intense light. The point, at which the substrate reaction is stopped, is often determined by the ELISA reader. Many ELISA readers record absorbance only up to 2.0
O.D. Therefore, the color development within individual microwells must be watched by the person running the assay and the substrate reaction stopped before positive wells are no longer properly detectable. Stop the enzyme reaction by quickly pipetting 100 μL of Stop Solution into each well, including the blank wells. It is important that the Stop Solution is spread quickly and uniformly throughout the microwells to completely inactivate the enzyme. Results must be read immediately after the Stop Solution is added or within one hour i f the microwell strips are stored at 2 - 8°C in the dark. Read absorbance of each microwell on a spectrophotometer using 450 nm as the primary wavelength.

Experiment [2] has as its system Bax. As to the kind of experiment: Bax activation assay. The class given is cell-based, human. The conditions noted are these: lung (A-549) cancer cells; for Bax Fold change: at IC50, vs untreated control; for Bax Conc: compound at IC50. Here is the method:
Cells were obtained from American Type Culture Collection, cells were grown in RPMI 1640 containing 10% fetal bovine serum at 37°C, stimulated with the compounds to be tested for caspase8, and lysed with Cell Extraction Buffer. This lysate was diluted in Standard Diluent Buffer over the range of the assay and measured for human active caspase-8 content. […]
4.2.7. Bax activation assay
Bring all reagents, except the human Bax-α Standard, to room temperature for at least 30 minutes prior to opening. The human Bax-α Standard solution should not be left at room temperature for more than 10 minutes. All standards, controls and samples should be run in duplicate. Refer to the Assay Layout Sheet to determine the number of wells to be used and put any remaining wells with the desiccant back into the pouch and seal the ziploc. Store unused wells at 4 °C. Pipet 100 μL of Assay Buffer into the S0 (0 pg/mL standard) wells. Pipet 100 μL of Standards #1 through #6 into the appropriate wells. Pipet 100 μL of the Samples into the appropriate wells. Tap the plate gently to mix the contents. Seal the plate and incubate at room temperature on a plate shaker for 1 hour at ~500 rpm. Empty the contents of the wells and wash by adding 400 μL of wash solution to every well. Repeat the wash 4 more times for a total of 5 washes. After the final wash, empty or aspirate the wells and firmly tap the plate on a lint free paper towel to remove any remaining wash buffer.
Pipet 100 μL of yellow Antibody into each well, except the Blank. Seal the plate and incubate at room temperature on a plate shaker for 1 hour at ~500 rpm. Empty the contents of the wells and wash by adding 400 μL of wash solution to every well. Repeat the wash 4 more times for a total of 5 washes. After the final wash, empty or aspirate the wells and firmly tap the plate on a lint free paper towel to remove any remaining wash buffer. Add 100 μL of blue Conjugate to each well, except the Blank. Seal the plate and incubate at room temperature on a plate shaker for 30 minutes […]
Pipet 100 μL of Substrate Solution into each well. Incubate for 30 minutes at room temperature on a plate shaker at ~500 rpm. Pipet 100 μL Stop Solution to each well. Blank the plate reader against the Blank wells, read the optical density at 450 nm. Calculate the average net Optical Density (OD) bound for each standard and sample by subtracting the average Blank OD from the average OD for each standard and sample. Using linear graph paper, plot the Average Net OD for each standard versus Bax concentration in each standard. Approximate a straight line through the points.
The concentration of Bax in the unknowns can be determined by interpolation. […]

As for `CCc1c2cc(Cl)ccc2n2cc(Cc3ccccc3)n(C)c(=O)c12` [Compound 12, 3-Benzyl-8-chloro-10-ethyl-2-methylpyrazino[1,2-a]indol-1(2H)-one], in experiment [1], the “Bcl-2 Conc” value is 0.65 ng/mL. In addition, in experiment [2], the “Bax Fold change” value came to 41 and the “Bax Conc” value turned out to be 368 ± 3 pg/mL.
With `CCc1c2cc(Cl)ccc2n2cc(-c3ccccc3)[nH]c(=O)c12` [Compound 16, 8-Chloro-10-ethyl-3-phenylpyrazino [1,2-a]indol-1(2H)-one], the “Bcl-2 Fold reduction” value in experiment [1] (at IC50, vs untreated control) is roughly 6. In experiment [1], the “Bcl-2 Conc” value came out at 0.85 ng/mL. For the same compound, in experiment [2], the “Bax Fold change” value was 35 and the “Bax Conc” value is 315 ± 3 pg/mL.
